ChEMBL document CHEMBL1127714, “Vasorelaxant activity of 2-fluoromethylbenzopyran K+ channel openers” (Bioorg Med Chem Lett, 1994)
pEC50: −log10 of the molar value.

How the values were obtained:
[1] = organism: Rattus norvegicus; experiment: Negative logarithm of the molar concentration required to relax rat aorta precontracted with 30 mM KCL by 50% of intrinsic activity; assay type: functional
[2] = organism: Rattus norvegicus; experiment: Intrinsic activity determined in rat aorta; assay type: functional

Compound	pEC50 [1]	IA [2]
O=c1ccccn1C1=CC(CF)(CF)Oc2ccc(C(F)(F)C(F)(F)F)cc21	8.53	69.2%
N#Cc1ccc2c(c1)[C@@H](n1ccccc1=O)[C@H](O)C(CF)(CF)O2	6.83	78.7%
O=C1CCCN1C1=CC(CF)(CF)Oc2ccc([N+](=O)[O-])cc21	8.11	74.3%
N#Cc1ccc2c(c1)C(n1ccccc1=O)=CC(CF)(CF)O2	7.61	75.7%
O=c1ccccn1C1=CC(CF)(CF)Oc2ccc([N+](=O)[O-])cc21	8.61	64.9%
O=C1CCCCN1C1=CC(CF)(CF)Oc2ccc(C(F)(F)C(F)(F)F)cc21	8.25	72%
O=C1CCCN1C1=CC(CF)(CF)Oc2ccc(C(F)(F)C(F)(F)F)cc21	8.82	68.6%
N#Cc1ccc2c(c1)[C@@H](N1CCCC1=O)[C@H](O)C(CF)(CF)O2	7.07	78%
O=C1CCCCN1C1=CC(CF)(CF)Oc2ccc([N+](=O)[O-])cc21	7.76	69.7%
N#Cc1ccc2c(c1)[C@@H](N1CCCCC1=O)[C@H](O)C(CF)(CF)O2	8.05	74.9%
O=c1ccccn1[C@@H]1c2cc(C(F)(F)C(F)(F)F)ccc2OC(CF)(CF)[C@H]1O	7.92	82.8%
O=C1CCCN1[C@@H]1c2cc(C(F)(F)C(F)(F)F)ccc2OC(CF)(CF)[C@H]1O	8.20	77.6%
N#Cc1ccc2c(c1)C(N1CCCCC1=O)=CC(CF)(CF)O2	6.79	68.7%
[O-][n+]1ccccc1C1=CC(CF)(CF)Oc2ccc(C(F)(F)C(F)(F)F)cc21	8.77	68.2%
N#Cc1ccc2c(c1)C(N1CCCC1=O)=CC(CF)(CF)O2	6.99	74.4%
O=C1CCCCN1[C@@H]1c2cc([N+](=O)[O-])ccc2OC(CF)(CF)[C@H]1O	8.56	63.3%
O=C1CCCN1[C@@H]1c2cc([N+](=O)[O-])ccc2OC(CF)(CF)[C@H]1O	7.62	72.7%
O=c1ccccn1[C@@H]1c2cc([N+](=O)[O-])ccc2OC(CF)(CF)[C@H]1O	7.54	74.5%
O=C1CCCCN1[C@@H]1c2cc(C(F)(F)C(F)(F)F)ccc2OC(CF)(CF)[C@H]1O	8.41	65.6%
CC1(C)C=C(n2ccccc2=O)c2cc(C#N)ccc2O1 [BIMAKALIM]	7.52	70.2%
CC1(C)Oc2ccc(C#N)cc2[C@@H](N2CCCC2=O)[C@@H]1O [CROMAKALIM]	–	74.7%
CC(N/C(=N\C#N)Nc1ccncc1)C(C)(C)C (configuration not stated) [PINACIDIL ANHYDROUS]	–	91.9%
